From article PMC8967206, “Pyrimidine-5-carbonitrile based potential anticancer agents as apoptosis inducers through PI3K/AKT axis inhibition in leukaemia K562” (Journal of Enzyme Inhibition and Medicinal Chemistry, 2022)
Where two headings read alike, the source gives them in different places.

How the values were obtained:
[1] = tested on: leukaemia (K562) cell line; experiment: MTT colorimetric cytotoxicity assay, K562; assay type: cell-based; settings: Homo sapiens, 48 h incubation, mean ± SD of three experiments
Description: (§2) Cytotoxicity of our sixteen innovative compounds 4(a–e), 5(a–d), 6, and 7(a–f) together with control was assessed by means of in-vitro toxicology assay kit, MTT based (Sigma Aldrich, St. Louis, MO) against MCF-7 and K562 cell lines incubated in 96 microwell plates and proceeded as reported[32]^,[33]. MTT (3-[4,5-dimethylthiazol-2-yl]-2,5-diphenyl tetrazolium bromide) method measures the activity of living cells through mitochondrial dehydrogenase. Mitochondrial dehydrogenases of viable cells cleave the tetrazolium ring, giving purple formazan crystals that are dissolved in acidified isopropanol and the resulting purple solution is measured spectrophotometrically. The change in cell number is proportional to the intensity of purple colour produced and the degree of cytotoxicity caused by the test compounds. The absorbance at a wavelength of 570 nm was measured using (ROBONIK P2000 spectrophotometer) and the background absorbance of multi-well plates at 690 nm then the absorbance at 690 nm was subtracted from the 570 nm measurement. Five concentrations from each test compound ranging from (0.04 to 100 µM) were prepared and the experiments were done in triplicate.

[2] = tested on: breast cancer (MCF-7) cell line; experiment: MTT colorimetric cytotoxicity assay, MCF-7; assay type: cell-based; settings: Homo sapiens, MCF7, 48 h incubation, mean ± SD of three experiments
Description: as §2

PI3Kγ = biological target: T1, PI3Kγ (Homo sapiens, UniProt P48736); experiment: PI3K enzyme inhibition assay (ADP-Glo), PI3Kγ; assay type: biochemical; settings: mean ± SD of three experiments
T1 construct: purchased BPS Bioscience, San Diego, CA
Description: (§3) The inhibition activities of 4d and 7f against PI3K enzyme were detected using PI3K assay kits and ADP-Glo kinase assay as a detection buffer (BPS Bioscience, San Diego, CA). According to the manufacturer’s instructions, PI3K enzyme was diluted with 2.5x Kinase assay buffer to obtain 4 ng/µl. The assay was performed in 96 well plates as follows: 5 µl of PIP2 substrate was added to each well followed by 5 ul from each inhibitor except for the positive control and blanks where the inhibitor buffers were added instead. Of 5 ul of 12.5 µM ATP was added. The reactions were initiated by adding 10 µl of diluted PI3K enzyme to the positive control and inhibitors wells. Plate was carefully shaked and was incubated at 30 °C for 40 min. After the 40 min incubation, 25 µl of ADP-Glo reagent were added to each well. The plate was covered with aluminium foil and incubated at room temperature for another 45 min. Of 50 µl of Kinase Detection reagent was added to each well. Plate was covered with aluminium foil and incubated at room temperature for extra 30 min. Luminescence was measured using microplate reader. Four concentrations from the two tested compounds ranged from (0.1 to 100 µM) were prepared and the experiment was repeated in triplicate. […] IC50 values were calculated using dose-response curves and linear regression equation.

[3] = Cytotoxicity on normal fibroblast cell line; assay type: cell-based; settings: human, WI-38 normal fibroblast cells; non-tumorigenic cell line
[4] = tested on: normal fibroblast cell line (WI-38); experiment: Cytotoxicity on normal fibroblast cell line; assay type: cell-based; settings: WI-38 versus K562
PI3Kδ = biological target: T2, PI3Kδ (Homo sapiens, UniProt O00329); experiment: PI3K enzyme inhibition assay (ADP-Glo), PI3Kδ; assay type: biochemical; settings: mean ± SD of three experiments
T2 construct: purchased BPS Bioscience, San Diego, CA
Description: as §3

[5] = In-vivo acute toxicity study; settings: rat, 2 g/kg, female rats, po, observed 14 d, read-out: median lethal dose (LD50)
Description: Five female rats (180–200 g) were used in this test. The animals were fasted for 24 h prior to administration of the test compound. The compound was administered in a dose of 2 g/kg body weight, po . Animals are observed individually and the mortalities were recorded at least once during the first 30 min after dosing, periodically during the first 24 h and daily afterwards, for a total of 14 d[40]. All animals received humane care and experimental procedures were carried out in strict accordance with the health and care guidelines for experimental animals. All experimental operations performed on rats were approved by the Animal Experiment Ethics Committee of Heliopolis University (Approval number HU.REC.A0.23-2021).
The toxicological profile of the most promising synthesised anticancer compound 7f was evaluated in female rats using the reported method in OECD guidelines. […]

Cyclin D1 = experiment: Western blot, Cyclin D1 expression in K562; assay type: cell-based; settings: K562, 48 h; control 0.849
Description: (§1) K562 cells were treated with the most promising compound (7f), for 48 h. Protein from control and treated cells was harvested and the concentration was measured via Bradford protein assay (Bio-Rad, Hercules, CA). The samples were loaded and separated by sodium dodecyl sulphate (SDS)-polyacrylamide gel electrophoresis and then transferred onto a polyvinylidene difluoride (PVDF) membrane. Western blot analysis was performed according to previously described.

K562 cells [6] = experiment: Cell cycle analysis (PI flow cytometry); assay type: cell-based
Description: Cell cycle analysis was determined by propidium iodide (PI) flow cytometry kit/BD. K562 cells were treated by compound 7f at its IC50 concentration. Then cells were washed in PBS, fixed in cold 70% ethanol for 30 min, washed twice in PBS, and centrifuged to remove supernatant, after that, cells were treated with 0.1 mg/ml ribonuclease, stained with 0.05 mg/ml PI. The results were analysed by flow cytometry using FACS calibre and cell cycle distribution were calculated and accomplished as reported[26]^,[34]^,[35].
As reported in the literature, inhibition of PI3K/AKT pathway affects the cell survival and proliferation[8]^,[9]. Thus, to investigate the effect of compound 7f in PI3K/Akt dual inhibition on cell cycle progression, cell cycle analysis was performed by flowcytometric analysis as reported[34]^,[35] on K562 cells treated with compound 7f. The outcomes presented in Table 4 indicated the interference with the cell cycle distribution, following 7f treatment, where there was a marked increase in the cells in pre-G1 phase by nearly 17-fold as compared to the control.

AKT = experiment: Western blot, AKT expression in K562; assay type: cell-based; settings: K562, 48 h; control 0.744
Description: as §1

p-PI3K = experiment: Western blot, p-PI3K expression in K562; assay type: cell-based; settings: K562, 48 h; control 0.639
Description: as §1

p-AKT = experiment: Western blot, p-AKT expression in K562; assay type: cell-based; settings: K562, 48 h; control 0.692
Description: as §1

PI3K = experiment: Western blot, PI3K expression in K562; assay type: cell-based; settings: K562, 48 h; control 0.881
Description: as §1

K562 cells [7] = experiment: Annexin-V-FITC apoptosis assay; assay type: cell-based; settings: K562, 48 h
Description: Apoptosis induction was assayed by staining K562 cells with Annexin-V (fluorescein isothiocyanate) and the counterstaining PI using the Annexin-V-FITC/PI apoptosis detection kit (BD Biosciences, San Diego, CA) according to the manufacturer’s instructions. Cells were exposed to the tested compound for 48 h. After that, the cells were collected by trypsinisation and 0.5 × 10^6 cells and washed twice with phosphate-buffered saline (PBS) followed by staining with 5 µl Annexin-V-FITC and 5 µl PI in 1 × binding buffer for 15 min at room temperature in the dark. FACS Calibre flow cytometer (BD Biosciences, San Diego, CA)[26]^,[36]^,[37] was used for analyses.
Data of the current research highlighted that treating Leukaemia K562 cells for 48 h with the compound 7f caused an increase in the percentage of Annexin-V positive apoptotic cells both in the early and late stage which represents a total significant 17-fold increase compared to the control.

NFkb = experiment: Western blot, NFkb expression in K562; assay type: cell-based; settings: K562, 48 h; control 0.719
Description: as §1

AKT-1 = AKT-1 (Homo sapiens, UniProt P31749); experiment: AKT enzyme inhibition assay (ELISA, cell lysates); assay type: biochemical; settings: mean ± SD of three experiments
Description: In brief, cell lysates were collected after treatment with the tested compounds using lysis buffer and centrifuged at 13,000 rpm for 15 min to obtain the cytosolic fraction. Samples were soaked with the kinase diluted buffer and the reaction was initiated by adding 10 µl of diluted ATP to each well, except blanks. Plate was incubated at 30 °C for up to 90 min covered with an adhesive plate sealer with gentle, shaking every 20 min. The reaction was stopped by emptying contents of each well. Of 40 µl of the phospho-specific substrate antibody was added except blank then incubated incubate at room temperature for 60 min, with shaking every 20 min. The liquid was aspirated and the wells washed three times with 1X washing buffer. After the last wash, liquid was aspirated and 40 µl of the diluted Anti-Rabbit IgG: HRP conjugate was added except blank, and incubated at room temperature for 30 min with shaking every 10 min. Plate was washed as described before. Of 60 µl of the TMB Substrate was added to each well and incubated at room temperature for 30–60 min. The reaction was stopped by adding 20 µl of the stop solution to each well. Absorbance was measured at 450 nm. Four concentrations from the tested compounds were prepared ranged from 0.1 to 100 µM and the assay was done in triplicates. […] LY2780301 compound was used as the positive control.

[8] = parameters: method as in PMID 32659486; settings: printed in Figure 4, target not given; cited from earlier work
[9] = K562, treated at IC50 concentration

T2 sequence (O00329 whole entry): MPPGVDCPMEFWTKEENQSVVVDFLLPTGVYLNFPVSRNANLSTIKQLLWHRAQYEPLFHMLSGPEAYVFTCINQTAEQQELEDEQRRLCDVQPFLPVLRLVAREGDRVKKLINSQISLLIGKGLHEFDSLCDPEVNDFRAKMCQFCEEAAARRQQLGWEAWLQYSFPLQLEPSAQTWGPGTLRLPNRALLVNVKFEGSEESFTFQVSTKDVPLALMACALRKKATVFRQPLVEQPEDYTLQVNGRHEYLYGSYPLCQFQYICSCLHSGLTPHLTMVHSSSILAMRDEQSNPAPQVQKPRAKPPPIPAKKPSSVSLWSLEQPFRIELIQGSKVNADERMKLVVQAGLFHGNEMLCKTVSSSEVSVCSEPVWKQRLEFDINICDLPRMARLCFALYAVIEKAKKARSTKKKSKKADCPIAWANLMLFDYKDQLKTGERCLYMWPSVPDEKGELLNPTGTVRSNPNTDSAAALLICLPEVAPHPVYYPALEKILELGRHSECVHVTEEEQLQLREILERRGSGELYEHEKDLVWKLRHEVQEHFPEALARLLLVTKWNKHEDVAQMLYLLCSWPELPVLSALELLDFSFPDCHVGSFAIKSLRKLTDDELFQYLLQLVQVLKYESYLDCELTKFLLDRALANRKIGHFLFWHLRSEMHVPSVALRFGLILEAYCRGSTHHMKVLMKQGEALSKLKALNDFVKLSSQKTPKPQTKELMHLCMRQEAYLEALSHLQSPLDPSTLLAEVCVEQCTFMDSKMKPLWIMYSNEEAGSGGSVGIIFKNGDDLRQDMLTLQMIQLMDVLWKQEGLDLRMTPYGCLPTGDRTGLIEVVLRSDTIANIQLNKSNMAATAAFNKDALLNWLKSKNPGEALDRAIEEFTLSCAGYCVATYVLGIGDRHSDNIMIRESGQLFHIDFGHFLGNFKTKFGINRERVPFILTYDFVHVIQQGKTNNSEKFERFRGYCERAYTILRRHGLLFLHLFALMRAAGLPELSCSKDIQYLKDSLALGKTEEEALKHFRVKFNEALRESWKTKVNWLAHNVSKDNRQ
T2 sequence (P27986 whole entry partner): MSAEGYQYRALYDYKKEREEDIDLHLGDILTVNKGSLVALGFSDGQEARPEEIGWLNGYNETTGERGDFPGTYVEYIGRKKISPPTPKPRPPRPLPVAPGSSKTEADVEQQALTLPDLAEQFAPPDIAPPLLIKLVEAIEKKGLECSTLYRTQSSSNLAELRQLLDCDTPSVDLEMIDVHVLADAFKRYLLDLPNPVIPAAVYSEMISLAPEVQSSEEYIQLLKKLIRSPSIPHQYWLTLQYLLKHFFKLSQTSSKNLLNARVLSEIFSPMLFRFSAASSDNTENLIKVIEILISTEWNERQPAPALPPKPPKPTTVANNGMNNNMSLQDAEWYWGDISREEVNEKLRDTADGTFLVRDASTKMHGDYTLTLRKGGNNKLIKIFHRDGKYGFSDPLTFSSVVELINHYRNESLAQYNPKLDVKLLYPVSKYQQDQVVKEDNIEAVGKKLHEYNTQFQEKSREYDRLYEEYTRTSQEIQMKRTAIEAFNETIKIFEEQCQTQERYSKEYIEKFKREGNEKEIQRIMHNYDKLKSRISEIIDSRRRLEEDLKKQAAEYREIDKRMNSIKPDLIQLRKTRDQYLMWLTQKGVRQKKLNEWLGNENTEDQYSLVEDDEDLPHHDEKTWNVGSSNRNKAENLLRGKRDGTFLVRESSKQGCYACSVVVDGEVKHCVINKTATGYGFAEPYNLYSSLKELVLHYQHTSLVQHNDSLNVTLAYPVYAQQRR
T1 sequence (P48736 whole entry): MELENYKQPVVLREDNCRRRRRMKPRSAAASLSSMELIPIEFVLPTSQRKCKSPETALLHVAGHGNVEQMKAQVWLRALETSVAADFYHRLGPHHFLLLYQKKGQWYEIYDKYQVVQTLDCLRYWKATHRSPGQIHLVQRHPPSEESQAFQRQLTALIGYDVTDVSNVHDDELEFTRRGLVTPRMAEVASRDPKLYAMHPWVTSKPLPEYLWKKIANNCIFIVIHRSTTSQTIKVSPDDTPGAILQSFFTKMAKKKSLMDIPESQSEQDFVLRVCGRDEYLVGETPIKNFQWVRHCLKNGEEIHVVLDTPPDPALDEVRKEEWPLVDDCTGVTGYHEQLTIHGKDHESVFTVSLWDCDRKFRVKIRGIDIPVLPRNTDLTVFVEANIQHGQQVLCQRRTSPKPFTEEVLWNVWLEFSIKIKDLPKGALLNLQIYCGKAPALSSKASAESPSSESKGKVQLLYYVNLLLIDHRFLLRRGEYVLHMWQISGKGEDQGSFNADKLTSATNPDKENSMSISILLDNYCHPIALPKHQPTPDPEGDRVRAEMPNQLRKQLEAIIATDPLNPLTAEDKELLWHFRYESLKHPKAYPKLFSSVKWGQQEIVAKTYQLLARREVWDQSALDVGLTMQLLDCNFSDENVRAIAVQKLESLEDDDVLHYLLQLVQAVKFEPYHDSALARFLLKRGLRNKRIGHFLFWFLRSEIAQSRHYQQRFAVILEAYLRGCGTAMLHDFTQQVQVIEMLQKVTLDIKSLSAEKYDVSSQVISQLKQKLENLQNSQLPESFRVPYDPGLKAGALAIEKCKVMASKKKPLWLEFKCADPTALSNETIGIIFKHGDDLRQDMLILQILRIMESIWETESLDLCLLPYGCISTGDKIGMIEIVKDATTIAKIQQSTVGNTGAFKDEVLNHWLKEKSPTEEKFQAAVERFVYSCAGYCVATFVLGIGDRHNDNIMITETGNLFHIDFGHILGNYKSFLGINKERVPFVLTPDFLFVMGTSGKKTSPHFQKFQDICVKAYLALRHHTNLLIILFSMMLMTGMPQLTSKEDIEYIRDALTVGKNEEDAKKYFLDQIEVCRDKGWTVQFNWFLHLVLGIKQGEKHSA
AKT-1, sequence (P31749 whole entry): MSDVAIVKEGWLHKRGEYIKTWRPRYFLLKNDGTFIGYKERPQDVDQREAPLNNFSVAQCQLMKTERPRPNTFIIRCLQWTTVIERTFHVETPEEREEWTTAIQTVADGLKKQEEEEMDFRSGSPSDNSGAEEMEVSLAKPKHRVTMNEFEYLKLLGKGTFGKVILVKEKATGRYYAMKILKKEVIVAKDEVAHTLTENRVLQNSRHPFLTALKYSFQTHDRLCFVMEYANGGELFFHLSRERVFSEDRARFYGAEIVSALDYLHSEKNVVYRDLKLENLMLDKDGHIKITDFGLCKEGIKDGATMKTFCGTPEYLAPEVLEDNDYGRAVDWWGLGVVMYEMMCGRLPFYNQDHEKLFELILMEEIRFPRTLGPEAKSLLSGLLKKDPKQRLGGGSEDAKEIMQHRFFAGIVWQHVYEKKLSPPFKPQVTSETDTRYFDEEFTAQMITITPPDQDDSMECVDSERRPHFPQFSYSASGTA

COc1ccc(-c2nc(SC)nc(N3CCNCC3)c2C#N)cc1 [4a, 4-(4-Methoxyphenyl)-2-(methylthio)-6-(piperazin-1-yl)pyrimidine-5-carbonitrile]
IC50 [1]: 7.97 ± 0.38 µM
IC50 [2]: 2.54 ± 0.14 µM

COc1ccc(-c2nc(SC)nc(N3CCN(C)CC3)c2C#N)cc1 [4b, 4-(4-Methoxyphenyl)-6-(4-methylpiperazin-1-yl)-2-(methylthio)pyrimidine-5-carbonitrile]
IC50 [1]: 93.6 ± 4.44 µM
IC50 [2]: 56.3 ± 3.06 µM

COc1ccc(-c2nc(SC)nc(N3CCN(c4ccccc4)CC3)c2C#N)cc1 [4c, 4-(4-Methoxyphenyl)-2-(methylthio)-6-(4-phenylpiperazin-1-yl)pyrimidine-5-carbonitrile]
IC50 [1]: 3.86 ± 0.18 µM
IC50 [2]: 6.64 ± 0.36 µM

COc1ccc(-c2nc(SC)nc(N3CCN(c4ccccc4F)CC3)c2C#N)cc1 [4d, 4-(4-(2-Fluorophenyl)piperazin-1-yl)-6-(4-methoxyphenyl)-2-(methylthio)pyrimidine-5-carbonitrile]
IC50 (PI3Kγ): 35.1 ± 1.82 µM
IC50 [1]: 1.06 ± 0.05 µM
IC50 [3]: 116 ± 7.03 µM
SI (selectivity index) [4]: 109.72
IC50 [2]: 0.8 ± 0.25 µM
IC50 (PI3Kδ): 23.9 ± 1.2 µM
melting point: 142 to 144 °C

COc1ccc(-c2nc(SC)nc(N3CCN(c4ccccc4OC)CC3)c2C#N)cc1 [4e, 4-(4-Methoxyphenyl)-6-(4-(2-methoxyphenyl)piperazin-1-yl)-2-(methylthio)pyrimidine-5-carbonitrile]
IC50 [1]: 34.8 ± 1.65 µM
IC50 [2]: 15.6 ± 0.85 µM
melting point: 170 to 172 °C

COc1ccc(-c2nc(SC)nc(Nc3ccc(C)cc3)c2C#N)cc1 [5a, 4-(4-Methoxyphenyl)-2-(methylthio)-6-(p-tolylamino)pyrimidine-5-carbonitrile]
IC50 [1]: 26.3 ± 1.25 µM
IC50 [2]: 21.3 ± 1.16 µM
melting point: 270 to 272 °C

COc1ccc(Nc2nc(SC)nc(-c3ccc(OC)cc3)c2C#N)cc1 [5b, 4-(4-Methoxyphenyl)-6-((4-methoxyphenyl)amino)-2-(methylthio)pyrimidine-5-carbonitrile]
IC50 [1]: 46.3 ± 2.2 µM
IC50 [2]: 125 ± 6.82 µM
melting point: 238 to 240 °C

COc1ccc(-c2nc(SC)nc(Nc3ccc(Cl)cc3)c2C#N)cc1 [5c]
IC50 [1]: 5.82 ± 0.28 µM
IC50 [2]: 46.9 ± 2.55 µM

COc1ccc(-c2nc(SC)nc(Nc3ccc(Br)cc3)c2C#N)cc1 [5d, 4-((4-Bromophenyl)amino)-6-(4-methoxyphenyl)-2-(methylthio)pyrimidine-5-carbonitrile]
IC50 [1]: 5.52 ± 0.26 µM
IC50 [2]: 15.7 ± 0.85 µM

COc1ccc(-c2nc(SC)nc(NN=Cc3ccc(C)cc3)c2C#N)cc1 [7a, 4–(4-Methoxyphenyl)-6-(2-(4-methylbenzylidene)hydrazineyl)-2-(methylthio)pyrimidine-5-carbonitrile]
IC50 [1]: 22.8 ± 1.08 µM
IC50 [2]: 30.5 ± 1.66 µM
melting point: 246 to 248 °C

COc1ccc(C=NNc2nc(SC)nc(-c3ccc(OC)cc3)c2C#N)cc1 [7b, 4-(2-(4-Methoxybenzylidene)hydrazineyl)-6-(4-methoxyphenyl)-2-(methylthio)pyrimidine-5-carbonitrile]
IC50 [1]: 16.8 ± 0.8 µM
IC50 [2]: 22.9 ± 1.24 µM
melting point: 244 to 246 °C

COc1ccc(-c2nc(SC)nc(NN=Cc3ccc(Cl)cc3)c2C#N)cc1 [7c, 4-(2-(4-Chlorobenzylidene)hydrazineyl)-6-(4-methoxyphenyl)-2-(methylthio)pyrimidine-5-carbonitrile]
IC50 [1]: 3.76 ± 0.18 µM
IC50 [2]: 7.42 ± 0.4 µM
melting point: 266 to 268 °C

COc1ccc(-c2nc(SC)nc(NN=Cc3ccc(Br)cc3)c2C#N)cc1 [7d, 4-(2-(4-Bromobenzylidene)hydrazineyl)-6-(4-methoxyphenyl)-2-(methylthio)pyrimidine-5-carbonitrile]
IC50 [1]: 44.3 ± 2.1 µM
IC50 [2]: 56 ± 3.05 µM
melting point: 246 to 248 °C

COc1ccc(-c2nc(SC)nc(NN=Cc3ccc([N+](=O)[O-])cc3)c2C#N)cc1 [7e, 4–(4-Methoxyphenyl)-2-(methylthio)-6-(2-(4-nitrobenzylidene)hydrazineyl)pyrimidine-5-carbonitrile]
IC50 [1]: 5.36 ± 0.25 µM
IC50 [2]: 7.11 ± 0.39 µM
melting point: 248 to 250 °C

COc1ccc(-c2nc(SC)nc(NN=Cc3cc(OC)c(OC)c(OC)c3)c2C#N)cc1 [7f, 4-(4-Methoxyphenyl)-2-(methylthio)-6-(2-(3,4,5-trimethoxybenzylidene)hydrazineyl)pyrimidine-5-carbonitrile]
LD50 at 14 d [5]: > 2000 mg/kg
IC50 (PI3Kγ): 6.99 ± 0.36 µM
Western blot [OD] Cyclin D1 (Cyclin D1): 0.383 OD
Cell cycle analysis, Comment (K562 cells [6]; K562): Cell growth arrest at S phase
Increase in S-phase compared to the control (K562 cells [6]; K562): ~1.3 fold
Increase in cells in pre-G1 phase compared to the control (K562 cells [6]; K562): ~17 fold
DNA content % %G0-G1 (K562 cells [6]; [9]): 44.97%
DNA content % %Pre-G1 (K562 cells [6]; [9]): 31.72%
IC50 [1]: 2.62 ± 0.12 µM
IC50 [3]: 34.8 ± 2.11 µM
SI (selectivity index) [4]: 13.29
IC50 [2]: 3.22 ± 0.18 µM
IC50 (PI3Kδ): 4.01 ± 0.55 µM
Western blot [OD] AKT (AKT): 0.402 OD
Western blot [OD] p-PI3K (p-PI3K): 0.281 OD
Western blot [OD] p-AKT (p-AKT): 0.316 OD
Western blot [OD] PI3K (PI3K): 0.219 OD
Apoptosis% Early (K562 cells [7]): 3.19%
Apoptosis% Late (K562 cells [7]): 19.04%
Apoptosis% Total (K562 cells [7]): 31.72%
Necrosis (K562 cells [7]): 9.49%
Total increase of Annexin-V positive apoptotic cells compared to the control (K562 cells [7]): 17 fold
Western blot [OD] NFkb (NFkb): 0.402 OD

O=c1cc(N2CCOCC2)oc2c(-c3ccccc3)cccc12 [LY294002, reference compound]
IC50 (PI3Kδ): 13.4 ± 0.67 µM

CN(C)CCn1cc(-c2ccc(F)c(C(F)(F)F)c2)nc1C1CCN(c2ncnc3c2CC(=O)N3)CC1 [LY2780301]
IC50 (AKT-1): 4.62 ± 0.24 µM

COc1ccc(-c2nc(N/N=C/c3c[nH]c4ccccc34)nc(N3CCOCC3)c2C#N)cc1 [VIII]
IC50 [8]: 10.9 µM

COc1ccc(-c2nc(SC)nc(NN)c2C#N)cc1 [compound 6, 4-Hydrazineyl-6-(4-methoxyphenyl)-2-(methylthio)pyrimidine-5-carbonitrile]
IC50 [1]: 6.67 ± 0.32 µM
IC50 [2]: 3.49 ± 0.19 µM
melting point: 270 to 272 °C
